Source: patent US12617752B2, “Rapidly metabolized lipid compound” (Beijing Jitai Life Sciences Ltd, priority 2023, dated 2026)

Columns and labels:
[1] = Particle size and PDI of lipid nanoparticles by dynamic light scattering; type: physicochemical; conditions: lipid nanoparticles with luciferase mRNA; ionizable lipid/cholesterol/DSPC/DMG-PEG2000 50/38.5/10/1.5 mol%
Outline: (§1)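 LNPs of ionizable lipid/cholesterol/phospholipid/PEG-lipid (50/38.5/10/1.5 mol%, N/P 6) were formed by microfluidic mixing with mRNA in pH 4.5 acetate, then buffer-exchanged by ultrafiltration. Size and PDI were measured by DLS. Encapsulation came from RiboGreen fluorescence (485/528 nm) in TE pH 7.5, with and without 0.5% Triton at 37 °C for 30 min.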

C57BL/6 mice = experiment: In vivo delivery of luciferase mRNA lipid nanoparticles in mice (bioluminescence imaging); conditions: intravenous, single dose 0.5 mg/kg luciferase mRNA
Outline: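 Female C57BL/6 mice, 6-8 weeks old, received luciferase mRNA lipid nanoparticles as a single intravenous dose of 0.5 mg/kg mRNA. At 6 h, D-luciferin given intraperitoneally; 10 min later, mice were imaged under isoflurane anaesthesia. Values are group mean fluorescence intensity and total photon count.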

[2] = Encapsulation efficiency of lipid nanoparticles (Quant-it RiboGreen RNA Assay); type: physicochemical; conditions: lipid nanoparticles with luciferase mRNA
Outline: as §1

Row | Particle size (nm) [1] [nm] | Particle-size distribution (PDI) [1] | Encapsulation efficiency (%) [2] [%] | SMILES | Total photon count in vivo at 6 hours after administration (Total Flux) (C57BL/6 mice)
1 | 93.16 | 0.16 | 95.88 | CCCCCCCCCC(=O)OCC(C)(C)CCCCCN(CCCO)CCCCCCC(=O)OCCC(CCCCCCC)CCCCCCC [77b] | 9.72E+10
2 | 187.50 | 0.18 | 68.54 | CCCCCCCCCNC(=O)CCCCCCCN(CCO)CCCCCCC(C)(C)C(=O)OC(CCCCCCCC)CCCCCCCC [58a] | 2.72E+10
3 | 98.23 | 0.18 | 94.15 | CCCCCCCCCC(=O)OCCCC(C)(C)CCCN(CCO)CCCCCCCC(=O)OCC(CCCCCCC)CCCCCCC [57b] | 3.86E+10
4 | 88.22 | 0.15 | 94.89 | CCCCCCCCCC(=O)OCCC(C)(C)CCCCCN(CCO)CCCCCCC(=O)OCC(CCCCCCCCC)CCCCCCCCC [106b] | 1.42E+11
5 | 92.45 | 0.12 | 95.13 | CCCCCCCCCCC(=O)OCCCCC(C)(C)CCN(CCO)CCCCCCCC(=O)OCCC(CCCCCCC)CCCCCCC [72b] | 7.01E+10
6 | 110.83 | 0.16 | 93.03 | CCCCCCCCCOC(=O)CCC(C)(C)CCCCN(CCO)CCCCCCOC(=O)OCC(CCCCCCC)CCCCCCC [46a] | 9.06E+10
7 | 100.25 | 0.12 | 93.91 | CCCCCCCCCCC(=O)OCCCC(C)(C)CCCN(CCCCO)CCCCCCC(=O)OCC(CCCCCCCCC)CCCCCCCCC [115b] | 3.71E+10
8 | 97.10 | 0.11 | 96.74 | CCCCCCCCCCC(=O)OCC(C)(C)CCCCCN(CCCCCCCC(=O)OC(CCCCCCCCC)CCCCCCCCC)C(=O)SCCCCN(C)C [40b] | 3.70E+10
9 | 85.20 | 0.19 | 97.61 | CCCCCCCCCC(=O)OCC1(CCCCCN(CCO)CCCCCCOC(=O)OCC(CCCCCCCC)CCCCCCCC)CC1 [34b] | 2.78E+10
10 | 85.56 | 0.14 | 93.79 | CCCCCCCCCCCC(=O)OCC(C)(C)CCCCCN(CCO)CCCCCCC(=O)OCC(CCCCCCCCCC)CCCCCCCCCC [97b] | 9.01E+10
11 | 88.13 | 0.16 | 94.05 | CCCCCCCCCC(=O)OCCC(C)(C)CCCCCN(CCO)CCCCCCCCC(=O)OCC(CCCCCCC)CCCCCCC [107b] | 1.98E+11
12 | 100.46 | 0.037 | 89.34 | CCCCCCCCCCOC(=O)CCCCCCCN(CCO)CCCCCC(C)(C)COC(=O)C(CCCCCCCC)CCCCCCCC [18b] | 3.91E+10
13 | 110.20 | 0.018 | 92.96 | CCCCCCCCCCCOC(=O)CCCCCN(CCO)CCCCCCC1(C(=O)OC(CCCCCCCC)CCCCCCCC)CC1 [13a] | 5.01E+10
14 | 92.08 | 0.15 | 94.81 | CCCCCCCCCOC(=O)CCCCCCCN(CCO)CCCCC(C)(C)COC(=O)OCC(CCCCCCC)CCCCCCC [51a] | 3.11E+10
15 | 187.13 | 0.21 | 63.26 | CCCCCCCCCC(=O)OCCCC(C)(C)CCCN(CCO)CCCCCCCCC(=O)OCC(CCCCCC)CCCCCC [111b] | 3.98E+10
16 | 105.97 | 0.06 | 90.84 | CCCCCCCCCC(=O)OCC(C)(C)CCCCCN(CCCCO)CCCCCCCC(=O)OC(CCCCCCCCC)CCCCCCCCC [52b] | 1.01E+11
17 | 99.57 | 0.16 | 90.71 | CCCCCCCCCC(=O)OCCCC(C)(C)CCCN(CCCO)CCCCCCC(=O)OCC(CCCCCCCC)CCCCCCCC [82b] | 5.03E+10
18 | 95.32 | 0.13 | 93.00 | CCCCCCCCCC(=O)OCCC(C)(C)CCCCCN(CCCCO)CCCCCCC(=O)OCCC(CCCCCCCC)CCCCCCCC [109b] | 1.90E+11
19 | 99.48 | 0.010 | 97.25 | CCCCCCCCCCCOC(=O)CCCCCN(CCO)CCCCCCC1(C(=O)OC(CCCCCCCC)CCCCCCCC)CCCC1 [22a] | 1.74E+10
20 | 131.09 | 0.032 | 89.69 | CCCCCCCCCOC(=O)CCCCCCCN(CCO)CCCC(C)(C)CCC(=O)OC(CCCCCCCC)CCCCCCCC [10a] | 7.08E+10
21 | 93.18 | 0.17 | 94.92 | CCCCCCCCCC(=O)OCCCC(C)(C)CCCN(CCO)CCCCCCC(=O)OCCC(CCCCCCC)CCCCCCC [74b] | 7.13E+10
22 | 165.53 | 0.09 | 84.27 | CCCCCCCCCCC(=O)OCC(C)(C)CCCCCN(CCCCO)CCCCCCCC(=O)OCCCC(CCCCCC)CCCCCC [63b] | 2.72E+10
23 | 101.67 | 0.030 | 88.68 | CCCCCCCCC(CCCCCCCC)OC(=O)C(C)(C)CCCCCCN(CCO)CCCCCCCOC(=O)CCCC(CCCCC)CCCCC [7b] | 2.00E+10
24 | 92.74 | 0.15 | 97.44 | CCCCCCCCCCOC(=O)CCCCC(C)(C)CCN(CCCCCCCC(=O)OC(CCCCCCCCC)CCCCCCCCC)C(=O)SCCCCN(C)C [60a] | 1.75E+10
25 | 101.90 | 0.028 | 89.09 | CCCCCCCCCCC(=O)OCC(C)(C)CCCCCN(CCO)CCCCCCCC(=O)OC(CCCCCCCCC)CCCCCCCCC [16b] | 1.28E+11
26 | 87.99 | 0.18 | 93.04 | CCCCCCCCCCCC(=O)OCC(C)(C)CCCCCN(CCO)CCCCCCCCC(=O)OCC(CCCCCCCC)CCCCCCCC [98b] | 1.07E+11
27 | 110.30 | 0.018 | 93.90 | CCCCCCCCCCOC(=O)CCCC(C)(C)CCN(CCO)CCCCCCCC(=O)OCCC(CCCCCC)CCCCCC [28a] | 4.30E+10

Row | SMILES | Particle size (nm) [1] [nm] | Particle-size distribution (PDI) [1] | Encapsulation efficiency (%) [2] [%] | Total photon count in vivo at 6 hours after administration (Total Flux) (C57BL/6 mice)
28 | CCCCCCCCCOC(=O)C(C)(C)CCCCCCN(CCO)CCCCCCOC(=O)OCCCCC(CCCC)CCCC [43a] | 105.63 | 0.15 | 97.03 | 2.23E+10
29 | CCCCCCCCCCCOC(=O)OCCCCN(CCO)CCCCCCC(C)(C)C(=O)OCC(CCCCCCC)CCCCCCC [37a] | 110.67 | 0.15 | 92.14 | 3.54E+10
30 | CCCCCCCCCSC(=O)CCCCCCCN(CCO)CCCCCCC(C)(C)C(=O)OC(CCCCCCCC)CCCCCCCC [52a] | 79.40 | 0.09 | 93.30 | 2.58E+10
31 | CCCCCC/C=C\COC(=O)CCCCCCCN(CCO)CCCCCCC(C)(C)C(=O)OC(CCCCCCCC)CCCCCCCC [57a] | 79.17 | 0.17 | 95.41 | 3.42E+10
32 | CCCCCCCCCCCOC(=O)OCCCCCCN(CCO)CCCCCCC(C)(C)C(=O)OC(CCCCCCCCCC)CCCCCCCCCC [49a] | 100.56 | 0.14 | 94.85 | 2.28E+10
33 | CCCCCCCCCCCOC(=O)OCCCCN(CCO)CCCCCCC(C)(C)C(=O)OCCC(CCCCCC)CCCCCC [38a] | 114.03 | 0.13 | 94.51 | 1.39E+10
